For 28 molecules, IC50 results are on record in patent US20220274979A1 (Bayer Pharma Aktiengesellschaft, priority 2018, published 2022).

This assay deals with T1, Epidermal Growth Factor Receptor (EGFR) (Homo sapiens, UniProt P00533).
T1 construct: purchased Sigma-Aldrich E3641
T1 sequence (P00533 25-1210): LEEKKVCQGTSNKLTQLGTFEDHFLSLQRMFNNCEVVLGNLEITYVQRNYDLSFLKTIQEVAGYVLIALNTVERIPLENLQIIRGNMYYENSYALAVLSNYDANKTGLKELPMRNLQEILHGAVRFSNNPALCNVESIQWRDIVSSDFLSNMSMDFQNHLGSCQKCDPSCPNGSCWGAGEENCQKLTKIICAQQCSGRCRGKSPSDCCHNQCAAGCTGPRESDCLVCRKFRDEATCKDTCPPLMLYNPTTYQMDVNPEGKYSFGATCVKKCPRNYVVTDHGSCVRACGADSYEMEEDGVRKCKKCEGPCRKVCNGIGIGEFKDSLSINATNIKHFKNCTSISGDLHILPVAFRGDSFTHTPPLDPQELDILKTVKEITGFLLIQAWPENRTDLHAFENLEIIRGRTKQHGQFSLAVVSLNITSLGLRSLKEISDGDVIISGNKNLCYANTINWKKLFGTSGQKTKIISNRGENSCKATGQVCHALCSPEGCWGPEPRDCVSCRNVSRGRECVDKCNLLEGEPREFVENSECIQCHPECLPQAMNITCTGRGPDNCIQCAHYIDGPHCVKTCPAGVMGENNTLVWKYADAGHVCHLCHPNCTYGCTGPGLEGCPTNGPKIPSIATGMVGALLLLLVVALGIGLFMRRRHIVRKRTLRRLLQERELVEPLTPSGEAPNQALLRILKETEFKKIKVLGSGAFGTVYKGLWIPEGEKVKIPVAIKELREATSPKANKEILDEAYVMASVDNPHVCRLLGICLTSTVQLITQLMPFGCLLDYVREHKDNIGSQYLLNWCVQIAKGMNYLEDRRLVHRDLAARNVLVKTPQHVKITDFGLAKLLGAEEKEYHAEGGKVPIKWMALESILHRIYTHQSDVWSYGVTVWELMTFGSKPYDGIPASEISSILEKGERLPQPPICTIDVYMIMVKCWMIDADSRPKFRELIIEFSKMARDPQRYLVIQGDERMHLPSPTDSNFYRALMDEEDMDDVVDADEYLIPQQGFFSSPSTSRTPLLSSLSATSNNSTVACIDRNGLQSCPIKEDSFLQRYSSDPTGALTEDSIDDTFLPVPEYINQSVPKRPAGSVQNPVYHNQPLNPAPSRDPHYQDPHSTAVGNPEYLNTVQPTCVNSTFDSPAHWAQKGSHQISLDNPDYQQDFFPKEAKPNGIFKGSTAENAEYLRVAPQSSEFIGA
Briefly: EGFR kinase assay (TR-FRET). The class given is biochemical. As to conditions: 10 μM ATP; read-out: EGFR kinase inhibition IC50. The text has this:
EGFR inhibitory activity of compounds of the present invention was quantified employing the TR-FRET based EGFR assay as described in the following paragraphs.
Epidermal Growth Factor Receptor (EGFR) affinity purified from human carcinoma A431 cells (Sigma-Aldrich, # E3641) was used as kinase. As substrate for the kinase reaction the biotinylated peptide biotin-Ahx-[…] (SEQ ID NO: 8, C-terminus in amid form) was used which can be purchased e.g. form the company Biosyntan GmbH (Berlin-Buch, Germany).
For the assay 50 nL of a 100 fold concentrated solution of the test compound in DMSO was pipetted into a black low volume 384 well microtiter plate (Greiner Bio-One, Frickenhausen, Germany), 2 μL of a solution of EGFR in aqueous assay buffer [50 mM Hepes/HCl pH 7.0, 1 mM MgCl2, 5 mM MnCl2, 0.5 mM activated sodium ortho-vanadate, 0.005% (v/v) Tween-20]were added and the mixture was incubated for […] at 22° C. to allow pre-binding of the test compounds to the enzyme before the start of the kinase reaction. Then the kinase reaction was started by the addition of 3 μL of a solution of adenosine-tri-phosphate (ATP, 16.7 μM=>final conc. in the 5 μL assay volume is 10 μM) and substrate (1.67 μM =>final conc. in the 5 μL assay volume is 1μM) in assay buffer and the resulting mixture was incubated for a reaction time of […] at 22° C. The concentration of EGFR was adjusted depending of the activity of the enzyme lot and was chosen appropriate to have the assay in the linear range, typical concentration were about 3 U/ml. The reaction was stopped by the addition of 5 μl of a solution of HTRF detection reagents (0.1 μM streptavidine-XL665 [Cis Biointernational]and 1 nM PT66-Tb-Cryptate, an terbium-cryptate labelled anti-phospho-tyrosine antibody from Cis Biointernational [instead of the PT66-Tb-cryptate PT66-Eu-Chelate from Perkin Elmer can also be used]) in an aqueous EDTA-solution (80 mM EDTA, 0.2% (w/v) bovine serum albumin in 50 mM HEPES pH 7.5).
The resulting mixture was incubated 1 h at 22° C. to allow the binding of the biotinylated phosphorylated peptide to the streptavidine-XL665 and the PT66-Eu-Chelate. Subsequently the amount of phosphorylated substrate was evaluated by measurement of the resonance energy transfer from the PT66-Tb-Cryptate to the streptavidine-XL665. Therefore, the fluorescence emissions at 620 nm and 665 nm after excitation at 337 nm were measured in a HTRF reader, e.g. a Pherastar (BMG Labtechnologies, Offenburg, Germany) or a Viewlux (Perkin-Elmer). The ratio of the emissions at 665 nm and at […] was taken as the measure for the amount of phosphorylated substrate.
On to `Cc1nc(N[C@H](C)c2cccc(Br)c2)c2cc(NCCN3CCOCC3)ncc2n1` [Example 39], for which the concentration for half-maximal inhibition (IC50) was above 20 µM. With `Cc1nc(N[C@H](C)c2cccc(Br)c2)c2cc(Oc3cccc(O)c3)ncc2n1` [Example 40, 3-[(4-{[(1R)-1-(3-bromophenyl)ethyl]amino}-2-methylpyrido[3,4-d]pyrimidin-6-yl)oxy]phenol], the IC50 was above 20 µM. For `Cc1nc(N[C@H](C)c2cccc(Br)c2)c2cc(Oc3cccc(C4=NCCN4C)c3)ncc2n1` [Example 41, N-[(1R)-1-(3-bromophenyl)ethyl]-2-methyl-6-[3-(1-methyl-4,5-dihydro-1H-imidazol-2-yl)phenoxy]pyrido[3,4-d]pyrimidin-4-amine], the concentration for half-maximal inhibition (IC50) is above 20 µM. With `Cc1nc(N[C@H](C)c2cccc(Br)c2)c2cc(N3CCN(Cc4cccnc4)CC3)ncc2n1` [Example 43, N-[(1R)-1-(3-bromophenyl)ethyl]-2-methyl-6-[4-(pyridin-3-ylmethyl)piperazin-1-yl]pyrido[3,4-d]pyrimidin-4-amine], the IC50 was above 20 µM. For `CC(=O)NCCNc1cc2c(N[C@H](C)c3cccc(Br)c3)nc(C)nc2cn1` [Example 44, N-{2-[(4-{[(1R)-1-(3-bromophenyl)ethyl]amino}-2-methylpyrido[3,4-d]pyrimidin-6-yl)amino]ethyl}acetamide], the IC50 is above 20 µM.

As to `Cc1nc(N[C@H](C)c2cccc(Br)c2)c2cc(N3CCNC(=O)C3)ncc2n1` [Example 45], the IC50 is above 20 µM.

For the molecule `Cc1nc(N[C@H](C)c2cccc(Br)c2)c2cc(NC3CCOCC3)ncc2n1` [Example 46], the IC50 is above 20 µM. On to `Cc1nc(NC(C)c2ccc(-c3ccccc3CN(C)C)s2)c2cc(NCCN3CCOCC3)ncc2n1` (stereo not shown) [Example 48], for which the IC50 was above 20 µM.

As for `Cc1nc(N[C@H](C)c2cccc(Br)c2)c2cc(NCCn3cccn3)ncc2n1` [Example 49, N4-[(1R)-1-(3-bromophenl)pethyl]-2-methyl-N6-[2-(1H-pyrazol-1-yl)ethyl]pyrido[3,4-d]pyrimidine-4,6-diamine], the IC50 is above 20 µM.

For the molecule `CC(=O)NCCNc1cc2c(NC(C)c3ccc(-c4ccccc4CN(C)C)s3)nc(C)nc2cn1` (stereo not shown) [Example 51, N-{2-[(4-{[1-(5-{2-[(dimethylamino)methyl]phenyl}thiophen-2-yl)ethyl]amino}-2-methylpyrido[3,4-d]pyrimidin-6-yl)amino]ethyl}acetamide], the IC50 was above 20 µM. The figure for `Cc1nc(NC(C)c2ccc(-c3ccccc3CN(C)C)s2)c2cc(Oc3cccc(O)c3)ncc2n1` (stereo not shown) [Example 52, 3-[(4-{[1-(5-{2-[(dimethylamino)methyl]phenyl}thiophen-2-yl)ethyl]amino}-2-methylpyrido[3,4-d]pyrimidin-6-yl)oxy]phenol] is above 20 µM; for `Cc1nc(NC(C)c2ccc(-c3ccccc3CN(C)C)s2)c2cc(NC3CCOCC3)ncc2n1` (stereo not shown) [Example 53, N4-[1-(5-{2-[(dimethylamino)methyl]phenyl}-2-thienyl)ethyl]-2-methyl-N6-(tetrahydro-2H-pyran-4-yl)pyrido[3,4-d]pyrimidine-4,6-diamine] it is above 20 µM; for `Cc1nc(NC(C)c2ccc(-c3ccccc3CN(C)C)s2)c2cc(NCCn3cccn3)ncc2n1` (stereo not shown) [Example 54, N4-[1-(5-{2-[(dimethylamino)methyl]phenyl}-2-thienyl)ethyl]-2-methyl-N6-[2-(1H-pyrazol-1-yl)ethyl]pyrido[3,4-d]pyrimidine-4,6-diamine] it is above 20 µM. On to `Cc1nc(NC(C)c2ccc(-c3ccccc3CN(C)C)s2)c2cc(NCCn3ccnc3)ncc2n1` (stereo not shown) [Example 56, N4-[1-(5-{2-[(dimethylamino)methyl]phenyl}-2-thienyl)ethyl]-N6-[2-(1H-imidazol-1-yl)ethyl]-2-methylpyrido[3,4-d]pyrimidine-4,6-diamine], for which the IC50 was above 20 µM.

As for `COc1cc2c(N[C@H](C)c3cccc(Br)c3)nc(C)nc2cn1` [Example 57, N-[(1R)-1-(3-bromophenyl)ethyl]-6-methoxy-2-methylpyrido[3,4-d]pyrimidin-4-amine], the IC50 is above 20 µM. In the case of `Cc1nc(NC(C)c2ccc(-c3ccccc3CN(C)C)s2)c2cc(Oc3cccc(C4=NCCN4C)c3)ncc2n1` (stereo not shown) [Example 58, N-[1-(5-{2-[(dimethylamino)methyl]phenyl}thiophen-2-yl)ethyl]-2-methyl-6-[3-(1-methyl-4,5-dihydro-1H-imidazol-2-yl)phenoxy]pyrido[3,4-d]pyrimidin-4-amine], the IC50 was above 20 µM. With `CSc1cc2c(NC(C)c3ccc(-c4ccccc4CN(C)C)s3)nc(C)nc2cn1` (stereo not shown) [Example 59, N-[1-(5-{2-[(dimethylamino)methyl]phenyl}thiophen-2-yl)ethyl]-2-methyl-6-(methylsulfanyl)pyrido[3,4-d]pyrimidin-4-amine], the IC50 is above 20 µM.

As to `CC(=O)NCCOc1cc2c(N[C@H](C)c3cccc(Br)c3)nc(C)nc2cn1` [Example 62, N-{2-[(4-{[(1R)-1-(3-bromophenyl)ethyl]amino}-2-methylpyrido[3,4-d]pyrimidin-6-yl)oxy]ethyl}acetamide], the IC50 is above 20 µM. `CCOc1cc2c(NC(C)c3ccc(-c4ccccc4CN(C)C)s3)nc(C)nc2cn1` (stereo not shown) [Example 63, N-[1-(5-{2-[(dimethylamino)methyl]phenyl}thiophen-2-yl)ethyl]-6-ethoxy-2-methylpyrido[3,4-d]pyrimidin-4-amine]: the IC50 is above 20 µM.

Consider `COc1cc2c(NC(C)c3ccc(-c4ccccc4CN(C)C)s3)nc(C)nc2cn1` (stereo not shown) [Example 64, N-[1-(5-{2-[(dimethylamino)methyl]phenyl}thiophen-2-yl)ethyl]-6-methoxy-2-methylpyrido[3,4-d]pyrimidin-4-amine], for which the IC50 was above 20 µM. On to `Cc1nc(NC(C)c2ccc(-c3ccccc3CN(C)C)s2)c2cc(OC3CCS(=O)(=O)CC3)ncc2n1` (stereo not shown) [Example 67, N-[1-(5-{2-[(dimethylamino)methyl]phenyl}thiophen-2-yl)ethyl]-6-[(1,1-dioxidotetrahydro-2H-thiopyran-4-yl)oxy]-2-methylpyrido[3,4-d]pyrimidin-4-amine], for which the IC50 is above 20 µM. Take `Cc1nc(NC(C)c2ccc(-c3ccccc3CO)s2)c2cc(F)ncc2n1` (stereo not shown) [Example 68, [2-(5-{1-[(6-fluoro-2-methylpyrido[3,4-d]pyrimidin-4-yl)amino]ethyl}thiophen-2-yl)phenyl]methanol]: the IC50 was above 20 µM. Regarding `Cc1nc(N[C@H](C)c2cccc(Br)c2)c2cc(OCCCN(C)C)ncc2n1` [Example 70, N-[(1R)-1-(3-bromophenyl)ethyl]-6-[3-(dimethylamino)propoxy]-2-methylpyrido[3,4-d]pyrimidin-4-amine], the IC50 is above 20 µM.

Turning to `Cc1nc(NC(C)c2ccc(-c3ccccc3CN(C)C)s2)c2cc(N3CCC3)ncc2n1` (stereo not shown) [Example 71, 6-(azetidin-1-yl)-N-[1-(5-{2-[(dimethylamino)methyl]phenyl}thiophen-2-yl)ethyl]-2-methylpyrido[3,4-d]pyrimidin-4-amine], the IC50 was above 20 µM.

`Cc1nc(NC(C)c2ccc(-c3ccccc3CN(C)C)s2)c2cc(OCCCN(C)C)ncc2n1` (stereo not shown) [Example 72, N-[1-(5-{2-[(dimethylamino)methyl]phenyl}thiophen-2-yl)ethyl]-6-[3-(dimethylamino)propoxy]-2-methylpyrido[3,4-d]pyrimidin-4-amine]: the IC50 is above 20 µM. In the case of `Cc1nc(NC(C)c2ccc(-c3ccccc3CN(C)C)s2)c2cc(OCC3CC3)ncc2n1` (stereo not shown) [Example 73, 6-(cyclopropylmethoxy)-N-[1-(5-{2-[(dimethylamino)methyl]phenyl}thiophen-2-yl)ethyl]-2-methylpyrido[3,4-d]pyrimidin-4-amine], the IC50 is above 20 µM. Turning to `Cc1nc(NC(C)c2ccc(-c3ccccc3CN(C)C)s2)c2cc(OCCO)ncc2n1` (stereo not shown) [Example 74, 2-[(4-{[1-(5-{2-[(dimethylamino)methyl]phenyl}thiophen-2-yl)ethyl]amino}-2-methylpyrido[3,4-d]pyrimidin-6-yl)oxy]ethanol], the IC50 was above 20 µM. As for `Cc1nc(N[C@H](C)c2cccc(Br)c2)c2cc(OCC3CC3)ncc2n1` [Example 75, N-[(1R)-1-(3-bromophenyl)ethyl]-6-(cyclopropylmethoxy)-2-methylpyrido[3,4-d]pyrimidin-4-amine], the IC50 is above 20 µM.
